Results published in patent publication USRE37421E, “Rapamycin derivatives” (SmithKline Beecham Corporation, priority 1999, dated 2001).

Tested on: Spleen cells from BDF1 female mice
Assay: Mitogenesis Assay for Immunosuppressive Activity (concanavalin A-stimulated spleen cells, 3H-thymidine uptake)
Type: cell-based
Conditions: BDF1 mouse spleen cells, Concanavalin A 5 μg/ml, 72 hours
Procedure: Spleen cells from BDF1 female mice were established in RPMI with 10% fetal calf serum at 5×10^6 /mL. […] Concanavalin A (5μ g/ml)was added as the mitogenic stimulus, and the final volume in the microtiter wells was adjusted to 200μ L with RPMI. Cell cultures were incubated for 72 hours at 37° C. in a 5% CO2 atmosphere and pulsed with 0.5μ Ci ^3 H-thymidine (specific activity […]) for the last 18 hours of the 72 hour culture. The cells were harvested on an automated multiple sample harvester and cell-associated radioactivity counted in a Beckman liquid scintillation counter. The results are expressed as the mean values derived from quadruplicate measurements. Cell viability was determined by trypan blue exclusion after 72 hours of incubation. Compounds to be tested were added to the microtiter plates at the appropriate dilutions prior to the addition of cells.

IC50 [nM]	Compound
2	CO[C@H]1C[C@@H]2CC[C@@H](C)[C@@](O)(O2)C(=O)C(=O)N2CCCC[C@H]2C(=O)O[C@H]([C@H](C)C[C@@H]2CC[C@@H](O)[C@H](OC)C2)CC(=O)[C@H](C)/C=C(\C)[C@@H](O)[C@@H](OC)C(O)[C@H](C)C[C@H](C)/C=C/C=C/C=C/1C (single isomer, unassigned) [Ex. 4, isomer 1, 30-Dihydro-rapamycins]
1 to 10	CO[C@H]1C[C@@H]2CC[C@@H](C)[C@@](O)(O2)C(O)C(=O)N2CCCC[C@H]2C(=O)O[C@H]([C@H](C)C[C@@H]2CC[C@@H](O)[C@H](OC)C2)CC(=O)[C@H](C)/C=C(\C)[C@@H](O)[C@@H](OC)C(O)[C@H](C)C[C@H](C)/C=C/C=C/C=C/1C (single isomer, unassigned) [Ex. 2, isomer 2, 14,30-Bisdihydrorapamycin]
0.1 to 1	CO[C@H]1C[C@@H]2CC[C@@H](C)[C@@](O)(O2)C(=O)C(=O)N2CCCC[C@H]2C(=O)O[C@H]([C@H](C)C[C@@H]2CC[C@@H](O)[C@H](OC)C2)CC(=O)[C@H](C)/C=C(\C)[C@@H](O)[C@@H](OC)C(O)[C@H](C)C[C@H](C)/C=C/C=C/C=C/1C (single isomer, unassigned) [Ex. 4, isomer 2, 30-Dihydro-rapamycins]

Same assay, conditions: Mus musculus, Concanavalin A 5 μg/ml, 72 hours

Compound	IC50 [nM]
CO[C@H]1C[C@@H]2CC[C@@H](C)[C@@](O)(O2)C(O)C(=O)N2CCCC[C@H]2C(=O)O[C@H]([C@H](C)C[C@@H]2CC[C@@H](O)[C@H](OC)C2)CC(=O)[C@H](C)/C=C(\C)[C@@H](O)[C@@H](OC)C(=O)[C@H](C)C[C@H](C)/C=C/C=C/C=C/1C (single isomer, unassigned; isomer 14) [Ex. 1, major isomer, 14-Dihydrorapamycin]	10
CO[C@H]1C[C@@H]2CC[C@@H](C)[C@@](O)(O2)C(O)C(=O)N2CCCC[C@H]2C(=O)O[C@H]([C@H](C)C[C@@H]2CC[C@@H](O)[C@H](OC)C2)CC(=O)[C@H](C)/C=C(\C)[C@@H](O)[C@@H](OC)C(O)[C@H](C)C[C@H](C)/C=C/C=C/C=C/1C (single isomer, unassigned) [Ex. 2, isomer 1, 14,30-Bisdihydrorapamycin]	1 to 10

Next, values leading:

IC50 [nM]	Compound
> 1000	CO[C@H]1[C@@H](O)[C@H](C)C[C@H](C)/C=C/C=C/C=C(\C)[C@@H](OC)C[C@@H]2CC[C@@H](C)[C@](O)(CC(=O)N3CCCC[C@H]3C(=O)O[C@H]([C@H](C)C[C@@H]3CC[C@@H](O)[C@H](OC)C3)CC(=O)[C@H](C)/C=C(\C)[C@H]1O)O2 [Ex. 6, 14-Desoxo-30 (S) -dihydro-rapamycin]
100 to 1000	CO[C@H]1C[C@@H]2CC[C@@H](C)[C@@](O)(O2)C(=O)C(=O)N2CCCC[C@H]2C(=O)O[C@H]([C@H](C)C[C@@H]2CC[C@@H](O)[C@H](OC)C2)CC(=O)[C@H](C)/C=C(\C)[C@H]2OC(C)(C)OC([C@H](C)C[C@H](C)/C=C/C=C/C=C/1C)[C@@H]2OC [Ex. 5, 30-Dihydro-Rapamycin-28, 30-Acetonide]
100 to 1000	CO[C@H]1C[C@@H]2CC[C@@H](C)[C@@](OC)(O2)C(O)C(=O)N2CCCC[C@H]2C(=O)O[C@H]([C@H](C)C[C@@H]2CC[C@@H](O)[C@H](OC)C2)CC(=O)[C@H](C)/C=C(\C)[C@@H](O)[C@@H](OC)C(O)[C@H](C)C[C@H](C)/C=C/C=C/C=C/1C (single isomer, unassigned) [Ex. 3, major isomer, 14,30-Bisdihydro-13-O-methylrapamycins]
